Measurements published in ChEMBL document CHEMBL6182843, “Actinomycetes: Treasure trove for discovering novel antibiotic candidates” (2025).
Values after ≈ are worked out from the molar mass of the structure shown.

Columns and labels:
Format in all cases: functional
Staphylococcus aureus [1] = test: Antibacterial activity against Staphylococcus aureus ATCC 33591
Enterococcus faecalis = test: Antibacterial activity against Vancomycin-resistant Enterococcus faecalis ATCC 51299
Staphylococcus aureus [2] = test: Antimicrobial activity against Staphylococcus aureus ATCC 29213 assessed as reduction in microbial growth incubated for 16 hrs by CLSI protocol based Mueller-Hinton broth micro-dilution method
[3] = system: Staphylococcus epidermidis; test: Antimicrobial activity against Staphylococcus epidermidis ATCC 12228 assessed as reduction in microbial growth incubated for 16 hrs by CLSI protocol based Mueller-Hinton broth micro-dilution method
Bacillus subtilis [4] = test: Antibacterial activity against Bacillus subtilis ATCC 6633 assessed as reduction in microbial growth
Staphylococcus aureus [5] = test: Antibacterial activity against Staphylococcus aureus ATCC 33592 assessed as reduction in microbial growth
Staphylococcus aureus [6] = test: Antibacterial activity against Staphylococcus aureus ATCC 25923 assessed as reduction in microbial growth
Bacillus cereus [7] = test: Antibacterial activity against Bacillus cereus ATCC 11778 assessed as reduction in bacterial growth
Staphylococcus aureus [8] = test: Antibacterial activity against methicillin-resistant Staphylococcus aureus
Escherichia coli [9] = test: Antibacterial activity against Escherichia coli
Bacillus subtilis [10] = test: Antibacterial activity against Bacillus subtilis
Staphylococcus aureus [11] = test: Antibacterial activity against Staphylococcus aureus
Xanthomonas campestris = test: Antibacterial activity against Xanthomonas campestris
Xanthomonas oryzae = test: Antibacterial activity against Xanthomonas oryzae
Staphylococcus aureus [12] = test: Antibacterial activity against Staphylococcus aureus assessed as reduction in microbial growth incubated for 24 hrs by CLSI protocol based analysis
Escherichia coli [13] = test: Antibacterial activity against Escherichia coli ATCC 25922 assessed as reduction in microbial growth incubated for 24 hrs by CLSI protocol based analysis
Bacillus cereus [14] = test: Antibacterial activity against Bacillus cereus
Escherichia coli [15] = test: Antibacterial activity against […] Escherichia coli ATCC 25922 assessed as reduction in bacterial growth measured for 12 hrs by CLSI protocol based broth microdilution method

## COc1cc2oc3c(O)c4c(c(O)c3c(=O)c2cc1O)-c1c(cc2cc(C)[nH]c(=O)c2c1O)CC4
Staphylococcus aureus [1]
  MIC: 0.03 µg/mL (≈ 0.0634 µM)
Enterococcus faecalis
  MIC: 0.03 µg/mL (≈ 0.0634 µM)

## C/C=C1\NC(=O)[C@@H](CC)NC(=O)CNC(=O)[C@@](C)(C(C)=O)NC(=O)[C@H](Cc2c[nH]c3cccc(OC)c23)NC(=O)c2csc(n2)[C@@H](C)NC(=O)CNC1=O
Staphylococcus aureus [2]
  MIC: 3.1 µg/mL
[3]
  MIC: 1.6 µM

## CC[C@H](C)[C@@H]1NC(=O)[C@@H](Cc2c[nH]c3cc(Br)ccc23)NC(=O)[C@@H](Cc2c[nH]c3ccc(Br)cc23)NC(=O)[C@@H](CO)NC(=O)[C@@H](CCC(=O)O)NC(=O)[C@@H](C(C)C)NC1=O
Bacillus subtilis [4]
  MIC: 1.6 µg/mL
Staphylococcus aureus [5]
  MIC: > 100 µg/mL
Staphylococcus aureus [6]
  MIC: 25 µg/mL

## C[C@@H]1C[C@@]2(C)O[C@]1(O)[C@@H]1C(=O)O[C@@]34C[C@@H](C)[C@@]5(C)O[C@@]13C(=C[C@@H]4C5O)C2=O (some centres undefined)
Bacillus cereus [7]
  MIC: 50 µg/mL (≈ 133 µM)

## C=CC(C)(C)ON(CCCCCCC(O)CCCCC(O)c1nc(CCCNC(=N)NCC=C(C)C)c(OC)nc1C(O)CCNC(=N)NCC=C(C)C)C(=N)N (centres undefined)
Staphylococcus aureus [8]
  MIC: 2 µg/mL (≈ 2.49 µM)
Escherichia coli [9]
  MIC: 2 µg/mL (≈ 2.49 µM)

## COC(=O)/C(C)=C/CC[C@H](OC)[C@@H](OC(N)=O)/C(C)=C/[C@H](C)[C@@H](O)[C@H](C[C@H](C)CC1=C(OC)C(=O)C2=C(NC(=O)[C@@H](C)S2)C1=O)OC
Bacillus subtilis [10]
  MIC: 64 µg/mL (≈ 94 µM)
Staphylococcus aureus [11]
  MIC: 64 µg/mL (≈ 94 µM)

## COC(=O)[C@@]1(O)C[C@@H](C)C[C@H](OC)[C@H](O)[C@@H](C)C/C=C(/C)[C@H](OC(N)=O)[C@@H](OC)/C=C\C=C(/C)C(=O)NC2=CC(=O)O[C@]21O
Xanthomonas campestris
  MIC: 8.12 µg/mL (≈ 13 µM)
Xanthomonas oryzae
  MIC: 4.06 µg/mL (≈ 6.5 µM)

## COc1cc2oc3c(c(=O)c2cc1O)C(=O)C1=C(CCc2cc4cc(C)[nH]c(=O)c4c(O)c21)C3=O
Staphylococcus aureus [1]
  MIC: 0.12 µg/mL (≈ 0.255 µM)
Enterococcus faecalis
  MIC: 0.25 µg/mL (≈ 0.53 µM)

## CC[C@H](C)C[C@@]1(O)C(=O)C[C@H](O)[C@](C)(O)/C=C(\C)[C@@H](O)/C(C)=C/C(C)=C/C[C@@H](CO[C@@H]2O[C@H](CO)[C@@H](O)[C@H](O)[C@H]2O)OC(=O)C[C@@H](O)CNC1=O
Staphylococcus aureus [12]
  MIC: 21 µg/mL
Escherichia coli [13]
  MIC: 27.9 µg/mL

## CC[C@H](C)[C@@H]1NC(=O)[C@@H](Cc2c[nH]c3cc(Cl)ccc23)NC(=O)[C@@H](Cc2c[nH]c3ccc(Cl)cc23)NC(=O)[C@@H](CO)NC(=O)[C@@H](CCC(=O)O)NC(=O)[C@@H](C(C)C)NC1=O
Bacillus subtilis [4]
  MIC: 1.6 µg/mL
Staphylococcus aureus [5]
  MIC: 1.6 µg/mL
Staphylococcus aureus [6]
  MIC: 3.1 µg/mL

## C=CC(C)(C)ON(CCCCCCC(O)CCCCC(O)c1nc(CCCNC(=N)NCC=C(C)C)c(OC)nc1CCCNC(=N)NCC=C(C)C)C(=N)N (centres undefined)
Staphylococcus aureus [8]
  MIC: 3 µg/mL (≈ 3.82 µM)
Escherichia coli [9]
  MIC: 4 µg/mL (≈ 5.09 µM)

## O=C1c2ccc3cc([C@@H](O)CO)cc(O)c3c2C(=O)c2cccc(O)c21
Staphylococcus aureus [8]
  MIC: 0.39 µg/mL (≈ 1.11 µM)
Bacillus subtilis [10]
  MIC: 0.78 µg/mL (≈ 2.23 µM)
Escherichia coli [9]
  MIC: 1.56 µg/mL (≈ 4.45 µM)

## COC1=C(CC2=C(C)CC(C)(C)CC2)C(=O)c2c(cc(O)c(C)c2O)C1=O
Bacillus cereus [14]
  MIC: 50 µg/mL (≈ 135 µM)

## CSc1c(C(C)C)c(=O)c2cc(O)c3c(=O)c4c(O)cccc4c(=O)c3c2c1=O
Staphylococcus aureus [8]
  MIC: 3.12 µg/mL (≈ 7.65 µM)

## C=CC(C)(C)ON(CCCCCCCCCCCC(O)c1nc(CCCNC(=N)NCC=C(C)C)c(OC)nc1C(O)CCNC(=N)NCC=C(C)C)C(=N)N (centres undefined)
Staphylococcus aureus [8]
  MIC: 0.5 µg/mL (≈ 0.636 µM)
Escherichia coli [9]
  MIC: 0.5 µg/mL (≈ 0.636 µM)

## CC(=O)[C@@H](C)N(CCc1c[nH]c2ccccc12)C(C)=O
Escherichia coli [15]
  MIC: 7 µg/mL (≈ 25.7 µM)

## C=CC(C)(C)ON(CCCCCCCCCCCCc1nc(CCCNC(=N)N)c(OC)nc1CCCNC(=N)N)C(=N)N
Staphylococcus aureus [8]
  MIC: 1 µg/mL (≈ 1.62 µM)
Escherichia coli [9]
  MIC: 1 µg/mL (≈ 1.62 µM)

## Cc1c(O)cc2c(c1O)C(=O)C(C[C@@]13CCC(C)(C)C[C@]1(C)O3)=C(Cl)C2=O
Bacillus cereus [14]
  MIC: 12.5 µg/mL (≈ 32 µM)
Staphylococcus aureus [11]
  MIC: 25 µg/mL (≈ 64 µM)

## CC1C[C@@](C)(C(=O)[C@]23C=C[C@@]45C[C@H](C)[C@@](C)(O[C@]42CC(=O)O5)[C@H]3O)OC1=O (some centres undefined)
Bacillus cereus [7]
  MIC: 25 µg/mL (≈ 66.4 µM)

## CC[C@H](C)C[C@]1(O)C(=O)NC[C@H](O)CC(=O)O[C@H](CO[C@@H]2O[C@H](CO)[C@@H](O)[C@H](O)[C@H]2O)CC/C=C(\C)[C@H]2C(C)=C[C@@]3(C)O[C@H]4C[C@]1(O)O[C@@]4(C)[C@@H]23
Staphylococcus aureus [12]
  MIC: 11.6 µg/mL
Escherichia coli [13]
  MIC: 15.7 µg/mL

## CC(=O)OC1[C@H]2C=C3C(=O)[C@@]4(C)C[C@@H](C)[C@](O)(O4)[C@@H]4C(=O)O[C@]25C[C@@H](C)[C@@]1(C)O[C@@]345 (some centres undefined)
Bacillus cereus [7]
  MIC: > 50 µg/mL

## C[C@H]1[C@H](NC(=O)/C(=N\OC(C)(C)C(=O)O)c2csc(N)n2)C(=O)N1S(=O)(=O)O [AZTREONAM]
Staphylococcus aureus [8]
  MIC: 0.25 µg/mL (≈ 0.574 µM)
Escherichia coli [9]
  MIC: 0.25 µg/mL (≈ 0.574 µM)

## O=C(N[C@H](CO)[C@H](O)c1ccc([N+](=O)[O-])cc1)C(Cl)Cl [CHLORAMPHENICOL]
Staphylococcus aureus [8]
  MIC: 3.12 µg/mL (≈ 9.66 µM)

## COc1c(O)cc2cc1C[C@@H](C)C[C@H](OC)[C@H](O)[C@@H](C)/C=C(\C)[C@H](OC(N)=O)[C@@H](OC)CC/C=C(\C)C(=O)N2 [REBLASTATIN]
Xanthomonas campestris
  MIC: 0.125 µg/mL (≈ 0.228 µM)
Xanthomonas oryzae
  MIC: 4.06 µg/mL (≈ 7.4 µM)
